According to US20230272464A1, “MODIFIED NUCLEOTIDES AND METHODS FOR DNA AND RNA POLYMERIZATION AND SEQUENCING” (SeNA Research, Incorporated, priority 2019, published 2023):

Key:
Format in all cases: biochemical
[1] = PCR of two target fragments with added 2-Se-TTP (agarose gel); conditions: target fragments 268bp, 405bp; 2-Se-TTP additionally added
From the text: No bands were found in two blank groups. Thus, incorporation of 2-Se-TTP can effectively reduce the non-specific bands in PCR.

[2] = biological target: Klenow fragment of DNA polymerase I (Escherichia coli, UniProt P00582); assay: Polymerization using TTP or 2-Se-TTP (denatured PAGE)
From the text: The 30-nt DNA products made from the polymerization using TTP and 2-Se-TTP refer to full-length product in FIGS. 2B and 2C, respectively. […] Results of thermal dynamic calculation (FIG. 18) are consistent with the denatured PAGE. The initial reaction rate ratio (TTP vs 2-Se-TTP) was around 1.24.

DNA polymerase = DNA polymerase (Escherichia coli, UniProt P00582); assay: Misincorporation of 2-Se-TTP: extension with each dNTP except dCTP; conditions: dCTP not present; up to 30 minutes
Protocol: Experiments to examine the misincorporation of 2-Se-TTP were conducted as follows. Broadly, enzymatic extension reactions were performed using each naturally occurring dNTP except dCTP, knowing that misincorporations of TTP in place of dCTP are commonly the cause of decreased fidelity in DNA replications.

Taq DNA polymerase = Taq DNA polymerase (Thermus aquaticus, UniProt P19821); assay: PCR with dNTPαS I: suppression of nonspecific product
From the text: Compared to Bst DNA polymerase, Taq DNA polymerase is used much more widely, such as in polymerase chain reaction (PCR).
To test universality of suppression effect of dNTPαS I on nonspecific product, we checked 5 new pairs of primers (primer pair a, b, c, d, e) and 3 types of templates (plasmid, total human cDNA and human genome) with native dNTPs or S-modified dNTPs (FIG. 13). […] Further, S-dNTP can inhibit nonspecific amplification and increase specific product when amplifying simple plasmid template (FIG. 13B). Furthermore, when amplifying complex template (cDNA or genome), reactions using S-dNTP could exact specific product which can not be synthesized using all native dNTPs (FIG. 13B).

[3] = plasmid and total cDNA templates

Sequence of Taq DNA polymerase (P19821 whole entry): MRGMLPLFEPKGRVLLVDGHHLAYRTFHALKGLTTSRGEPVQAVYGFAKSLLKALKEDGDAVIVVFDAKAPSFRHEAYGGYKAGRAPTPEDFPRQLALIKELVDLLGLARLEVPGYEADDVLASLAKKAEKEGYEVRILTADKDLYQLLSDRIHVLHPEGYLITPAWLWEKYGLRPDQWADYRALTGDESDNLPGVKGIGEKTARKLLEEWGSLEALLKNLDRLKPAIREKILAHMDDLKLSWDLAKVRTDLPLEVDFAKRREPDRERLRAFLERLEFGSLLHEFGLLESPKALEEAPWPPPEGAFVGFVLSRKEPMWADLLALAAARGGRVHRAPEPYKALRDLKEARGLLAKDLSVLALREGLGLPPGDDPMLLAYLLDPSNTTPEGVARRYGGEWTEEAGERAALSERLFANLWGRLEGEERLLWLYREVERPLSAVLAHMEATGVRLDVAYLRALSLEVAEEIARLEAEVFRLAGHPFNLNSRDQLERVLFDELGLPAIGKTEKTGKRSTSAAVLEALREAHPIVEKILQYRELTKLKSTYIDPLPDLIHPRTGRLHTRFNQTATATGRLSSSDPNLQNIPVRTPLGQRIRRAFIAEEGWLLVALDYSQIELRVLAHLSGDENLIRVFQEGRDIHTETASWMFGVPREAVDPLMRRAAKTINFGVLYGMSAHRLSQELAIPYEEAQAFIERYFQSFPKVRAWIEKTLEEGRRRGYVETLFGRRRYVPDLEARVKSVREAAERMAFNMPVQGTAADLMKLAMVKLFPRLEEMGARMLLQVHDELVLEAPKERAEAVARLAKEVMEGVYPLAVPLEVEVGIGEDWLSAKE
Sequence of Klenow fragment of DNA polymerase I (P00582 324-928): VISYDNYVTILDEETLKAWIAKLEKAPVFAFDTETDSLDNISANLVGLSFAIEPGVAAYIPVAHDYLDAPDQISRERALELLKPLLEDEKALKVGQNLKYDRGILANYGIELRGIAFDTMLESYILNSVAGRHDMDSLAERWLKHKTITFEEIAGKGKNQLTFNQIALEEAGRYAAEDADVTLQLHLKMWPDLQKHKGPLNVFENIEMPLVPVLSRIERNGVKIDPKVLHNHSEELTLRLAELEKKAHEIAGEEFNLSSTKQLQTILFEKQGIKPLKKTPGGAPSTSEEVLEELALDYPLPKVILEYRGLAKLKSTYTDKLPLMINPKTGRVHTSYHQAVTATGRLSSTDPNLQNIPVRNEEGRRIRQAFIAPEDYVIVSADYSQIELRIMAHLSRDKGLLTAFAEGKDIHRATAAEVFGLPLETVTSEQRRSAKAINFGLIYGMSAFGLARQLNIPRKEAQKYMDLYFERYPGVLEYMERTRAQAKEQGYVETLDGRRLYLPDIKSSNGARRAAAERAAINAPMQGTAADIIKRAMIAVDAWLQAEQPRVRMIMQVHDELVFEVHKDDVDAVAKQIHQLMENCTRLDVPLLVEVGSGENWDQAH
Sequence of DNA polymerase (P00582 324-928): as above

| Structure (SMILES) | misincorporation in place of dCTP (full-length product) (DNA polymerase) | suppression of nonspecific product in PCR (Taq DNA polymerase; [3]) | further results |
| --- | --- | --- | --- |
| Cc1cn([C@H]2C[C@H](O)[C@@H](COP(=O)(O)OP(=O)(O)OP(=O)(O)O)O2)c(=[Se])[nH]c1=O [Compound 2-Se-TTP, 2-Se-dTTP] | little to no full-length product |  | bands in PCR (nonspecific amplification) [1]: clean and specific bands; initial reaction rate ratio (TTP vs 2-Se-TTP) ([2]; Klenow fragment): around 1.24; recognition by the Klenow fragment ([2]; compared with TTP): relatively well recognized |
| Nc1nc2c(ncn2C2CC(O)C(COP(O)(=[Se])OP(=O)(O)OP(=O)(O)O)O2)c(=O)[nH]1 (centres unmarked) [dGTPαSe I] |  | suppressed nonspecific product nearly completely |  |
| Nc1ccn([C@H]2C[C@H](O)[C@@H](COP(O)(=S)OP(=O)(O)OP(=O)(O)O)O2)c(=O)n1 (some centres unmarked) [dCTPαS I] |  | suppressed nonspecific product nearly completely |  |
| Nc1ccn([C@H]2C[C@H](O)[C@@H](COP(O)(=S)OP(=O)(O)OP(=O)(O)O)O2)c(=O)n1 (some centres unmarked) [S-dCTP] |  |  | suppression of nonspecific product in PCR (Taq DNA polymerase; 5 primer pairs, plasmid, total human cDNA and human genome templates): nearly completely suppressed |
| Cc1cn([C@H]2C[C@H](O)[C@@H](COP(=O)(O)OP(=O)(O)OP(=O)(O)O)O2)c(=O)[nH]c1=O [TTP, reference compound] | incorporated into the DNA primer sequence in a significant amount |  |  |
